Patent publication US7563774B2, “Combination of FBPase inhibitors and antidiabetic agents useful for the treatment of diabetes” (Metabasis Therapeutics, Inc., priority 2000, dated 2009)

Legend:
Goto-Kakizaki rats = test: Acute combination treatment of an alpha glucosidase inhibitor and an FBPase inhibitor in Goto-Kakizaki rats (Example EE); format: in vivo, rat
Protocol: Goto-Kakizaki rats, an animal model of lean NIDDM, were purchased at 5 weeks of age from Charles River Japan, Inc. (Tokyo, Japan). The rats were maintained under standard vivarium conditions (24-26° C., 12-hour light cycle, 12-hour dark cycle) and received standard chow and water ad libitum. At 18 weeks of age, animals were divided into 4 groups (n=5/group). The treatment groups were control, Compound J, acarbose (Bayer, Japan), and the combination of Compound J and acarbose. All animals were given 1 g/kg of corn starch by oral gavage. […] Acarbose was administered orally at a dose of 1 mg/kg simultaneously with starch. Blood glucose levels in tail vein samples were measured by means of a Glucoloader-F, an automatic glucose analyzer, (A&T Co., Ltd., Tokyo, Japan).

ZDF rats = test: Chronic combination treatment of an insulin secretagogue and an FBPase inhibitor in the ZDF rat (Example Y); format: in vivo; conditions: maximal doses, 2 to 12 weeks
Description: Male ZDF rats are purchased at 7 weeks of age from Genetics Models Inc. (Indianapolis, Ind.). […] At 8 weeks of age, animals are divided into 4 treatment groups (n=8/group). The treatments are control, Compound J, glyburide, and the combination of Compound J and glyburide. […] Other parameters measured by standard assays include: lactate, glycerol, alanine, triglycerides, free fatty acids, ketone bodies, hepatic and muscle glycogen, cholesterol, VLDL, HDL, hemoglobin Alc, body weight, food and water intake, as well as other measures of carbohydrate, lipid, and protein metabolism. […] Differences between groups are evaluated ANOVA using an appropriate post hoc test. Results are considered significant with p<0.05.

Db/db or ob/ob mice = test: Acute combination treatment of a glucose-6-phosphatase inhibitor and an FBPase inhibitor in db/db or ob/ob mice (Example GG); format: in vivo, mouse; conditions: 0.5 to 300 mg/kg p.o.
Protocol: Db/db or ob/ob mice are purchased at 5 weeks of age from Jackson Laboratories (Bar Harbor, Me.). The mice are maintained under standard vivarium conditions (24-26° C., 12-hour light cycle, 12-hour dark cycle) and receive standard chow and water ad libitum. At more than 10 weeks of age, animals are divided into 4 groups (n=5 to 7/group). […] Food is either withheld or made available after treatment. Blood glucose levels in tail vein samples are measured by means of standard manual or automated methods.

CCOC(=O)[C@H](C)NP(=O)(N[C@@H](C)C(=O)OCC)c1ccc(-c2nc(N)sc2CC(C)C)o1 [Compound J, 2-Amino-5-isobutyl-4-{2-[5-(N,N′-bis((S)-1-ethoxycarbonyl)ethyl)phosphonamido]furanyl}thiazole]
Plasma Glucose, relative value (% of pre-treatment value) (Goto-Kakizaki rats; 0 min): (121.8 +/− 8.0) % | Plasma Glucose (Goto-Kakizaki rats; 0 min, Compound J 10 mg/kg p.o. at −60 min, acarbose 1 mg/kg p.o. with starch): 218.4 ± 19.9 mg/dL | Plasma Glucose (Goto-Kakizaki rats; 30 min after starch): 245.2 ± 29.9 mg/dL | Plasma Glucose, relative value (% of pre-treatment value) (Goto-Kakizaki rats; 30 min after starch): (135.2 +/− 9.2) % | Plasma Glucose (Goto-Kakizaki rats; 60 min after starch): 251.0 ± 28.6 mg/dL | Plasma Glucose, relative value (% of pre-treatment value) (Goto-Kakizaki rats; 60 min after starch): (138.5 +/− 6.2) % | Plasma Glucose (Goto-Kakizaki rats; 120 min after starch): 182.8 ± 18.0 mg/dL | Plasma Glucose, relative value (% of pre-treatment value) (Goto-Kakizaki rats; 120 min after starch): (101.8 +/− 7.2) % | Plasma Glucose (Goto-Kakizaki rats; 240 min after starch): 144.6 ± 9.8 mg/dL | Plasma Glucose, relative value (% of pre-treatment value) (Goto-Kakizaki rats; 240 min after starch): (81.7 +/− 6.7) % | Plasma Glucose, relative value (% of pre-treatment value) (Goto-Kakizaki rats; −60 min): (100.0 +/− 0.0) % | Plasma Glucose (Goto-Kakizaki rats; −60 min relative to starch 1 g/kg): 179.8 ± 15.2 mg/dL | glycemic control (ZDF rats): more effective than glyburide as pancreatic function declines | blood glucose lowering (Db/db or ob/ob mice): significantly lower blood glucose relative to control values
